In the CheMixHub viscosity set:

Test: xn = mol fraction of the nth substance listed

CCCCN + Cc1ccccc1
303.15 K, 101 kPa
Conditions | viscosity [mPa·s]
x1 = 0.0685 | 0.51
x1 = 0.1474 | 0.497
x1 = 0.2553 | 0.485
x1 = 0.328 | 0.474
x1 = 0.4247 | 0.464
x1 = 0.5197 | 0.457
x1 = 0.6107 | 0.453
x1 = 0.6993 | 0.449
x1 = 0.7946 | 0.446
x1 = 0.8819 | 0.445
x1 = 0.9407 | 0.444
x2 = 0.1475 | 0.4405
x2 = 0.2127 | 0.441
x2 = 0.2918 | 0.439
x2 = 0.3842 | 0.4402
x2 = 0.5074 | 0.4449
x2 = 0.6083 | 0.4543
x2 = 0.7064 | 0.4677
x2 = 0.8686 | 0.4956

CC[N+](=O)[O-] + CCC(C)O
viscosity [mPa·s], 101.33 kPa
Conditions | 293.15 K | 303.15 K | 313.15 K
x2 = 0.05 | 0.679 | 0.605 | 0.543
x2 = 0.1 | 0.68 | 0.601 | 0.538
x2 = 0.15 | 0.684 | 0.604 | 0.536
x2 = 0.2001 | 0.704 | 0.616 | 0.542
x2 = 0.25 | 0.727 | 0.632 | 0.555
x2 = 0.3002 | 0.759 | 0.652 | 0.569
x2 = 0.35 | 0.793 | 0.676 | 0.586
x2 = 0.4 | 0.845 | 0.716 | 0.61
x2 = 0.45 | 0.904 | 0.75 | 0.64
x2 = 0.5 | 0.971 | 0.8 | 0.675
x2 = 0.55 | 1.034 | 0.847 | 0.707
x2 = 0.5999 | 1.123 | 0.909 | 0.75
x2 = 0.6499 | 1.236 | 0.98 | 0.801
x2 = 0.7 | 1.378 | 1.07 | 0.862
x2 = 0.7497 | 1.516 | 1.169 | 0.935
x2 = 0.8 | 1.723 | 1.319 | 1.026
x2 = 0.8499 | 1.983 | 1.484 | 1.144
x2 = 0.8998 | 2.353 | 1.724 | 1.304
x2 = 0.9499 | 2.873 | 2.05 | 1.511

CCCC(=O)OCC + CCCCCCC
viscosity [mPa·s], 101.3 kPa
Conditions | 308.15 K | 318.15 K
x1 = 0.0502 | 0.356 | 0.325
x1 = 0.1025 | 0.36 | 0.33
x1 = 0.2204 | 0.373 | 0.344
x1 = 0.2988 | 0.383 | 0.354
x1 = 0.3991 | 0.398 | 0.371
x1 = 0.5188 | 0.421 | 0.393
x1 = 0.6073 | 0.442 | 0.415
x1 = 0.6954 | 0.467 | 0.436
x1 = 0.8003 | 0.499 | 0.469
x1 = 0.9011 | 0.544 | 0.518
x1 = 0.9513 | 0.57 | 0.539

CCCCN + Cc1ccc(C)cc1
303.15 K, 101 kPa
Conditions | viscosity [mPa·s]
x1 = 0.0795 | 0.545
x1 = 0.1507 | 0.53
x1 = 0.2545 | 0.511
x1 = 0.3628 | 0.494
x1 = 0.4612 | 0.481
x1 = 0.5562 | 0.471
x1 = 0.6469 | 0.464
x1 = 0.7338 | 0.457
x1 = 0.8144 | 0.451
x1 = 0.8979 | 0.448
x1 = 0.9456 | 0.444

O=[N+]([O-])[O-].[Ag+] + O
298.15 K, 101 kPa
Conditions | viscosity [mPa·s]
x1 = 0.02589 | 0.99
x1 = 0.05251 | 1.134
x1 = 0.09523 | 1.451
x1 = 0.1797 | 2.439
